US6403645B2, “Antidepressant effect of norepinephrine uptake 2 inhibitors and combined medications including them” (President and Fellows of Harvard College, priority 2000, dated 2002)

Test: Urinary levels of norepinephrine and normetanephrine in depressed patients treated with desipramine
Assay type: in vivo
Text: (Plasma levels of normetanephrine were not measured in these studies.)

[1] = by the fourth week of treatment

## CNCCCN1c2ccccc2CCc2ccccc21 [desipramine]
After one week of treatment
  urinary levels of norepinephrine: small decreases
  urinary levels of normetanephrine: small decreases
[1]
  urinary levels of norepinephrine: statistically significant increases
  urinary levels of normetanephrine: statistically significant increases
